Tests used:
[1] = system: seawater bacteria; conditions: 28 day seawater test
[2] = Heat treatment of GFP solution with added biotin; conditions: 100° C. for 1 hour in GFP solution
Experimental: The sample has high fluorescence from the GFP. This solution was treated in 2 ways (a) no treatment (b) heat treated (samples were heated to 100° C. for 1 hour in an oven).

[3] = Biodegradation, 28 day seawater test, OECD 306; conditions: over 28 days
[4] = target: T1, galactose oxidase (Gibberella zeae, UniProt P0CS93); format: biochemical
[5] = Thermal stability of galactose and derivatives; conditions: 20 h
Experimental: The thermal stability of both galactose and octy-galactose was investigated. Galactose and octyl-galacotse solutions (50 ppm, 30 mL) were prepared in both deionised water and formation water. These solutions were divided and the pH of one water sample and one formation water sample was adjusted to 2 with HCl. 4.5 mL of each solution was placed in a duran bottle with Teflon tape wrapped around the threads to prevent evaporation. The eight samples were heated at 100 or 120° C. for 20 h. The remaining solutions were kept at 4° C. inbetween experiments. Each of the samples was diluted 10-fold before analysis.

[6] = target: T1, galactose oxidase
[7] = target: T2, xanthine oxidase (Bos taurus, UniProt P80457); assay: Limit of detection of xanthine and hypoxanthine, xanthine oxidase / Amplex Red assay
T2 construct: purchased
Text: This assay uses xanthine oxidase to catalyze the oxidation of hypoxanthine or xanthine, to uric acid and superoxide. The superoxide spontaneously degrades to hydrogen peroxide (H2O2), which reacts stoichiometrically with Amplex® Red in the presence of horseradishperoxidase (HRP). A fluorescent product, resorufin, is generated which can be detected fluorometrically or spectrophotometrically.

[8] = Thermostability of xanthine and hypoxanthine; conditions: room temperature and 120° C., 20 h, acidic and neutral pH
Experimental: These solutions were divided and the pH of one sample of each compound was adjusted to 2 with HCl. 4.5 mL of each solution was placed in a duran bottle with Teflon tape wrapped around the threads to prevent evaporation. The samples were heated at 120° C. for 20 h. The remaining solutions were kept at 25° C. Each of the samples was diluted 10-fold to 7.5 ppm before analysis.

T1 sequence (P0CS93 42-680 limits assumed): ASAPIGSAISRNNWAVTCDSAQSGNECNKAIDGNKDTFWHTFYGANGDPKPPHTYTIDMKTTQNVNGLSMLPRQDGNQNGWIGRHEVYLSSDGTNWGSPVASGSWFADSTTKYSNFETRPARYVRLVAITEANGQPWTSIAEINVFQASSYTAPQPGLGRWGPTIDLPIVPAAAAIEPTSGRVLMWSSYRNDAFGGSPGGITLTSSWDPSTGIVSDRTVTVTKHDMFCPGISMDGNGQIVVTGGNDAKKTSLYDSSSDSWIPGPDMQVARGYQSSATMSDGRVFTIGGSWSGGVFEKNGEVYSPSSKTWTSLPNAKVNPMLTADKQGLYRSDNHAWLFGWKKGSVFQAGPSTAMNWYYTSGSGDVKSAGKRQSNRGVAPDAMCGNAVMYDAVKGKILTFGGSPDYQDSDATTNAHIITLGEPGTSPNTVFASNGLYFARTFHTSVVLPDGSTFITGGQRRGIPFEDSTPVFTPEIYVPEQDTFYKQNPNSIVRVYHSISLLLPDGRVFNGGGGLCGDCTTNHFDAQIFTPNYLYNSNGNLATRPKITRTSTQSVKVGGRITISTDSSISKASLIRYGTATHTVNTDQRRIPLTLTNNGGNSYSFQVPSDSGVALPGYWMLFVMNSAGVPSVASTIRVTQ
T2 sequence (P80457 whole entry): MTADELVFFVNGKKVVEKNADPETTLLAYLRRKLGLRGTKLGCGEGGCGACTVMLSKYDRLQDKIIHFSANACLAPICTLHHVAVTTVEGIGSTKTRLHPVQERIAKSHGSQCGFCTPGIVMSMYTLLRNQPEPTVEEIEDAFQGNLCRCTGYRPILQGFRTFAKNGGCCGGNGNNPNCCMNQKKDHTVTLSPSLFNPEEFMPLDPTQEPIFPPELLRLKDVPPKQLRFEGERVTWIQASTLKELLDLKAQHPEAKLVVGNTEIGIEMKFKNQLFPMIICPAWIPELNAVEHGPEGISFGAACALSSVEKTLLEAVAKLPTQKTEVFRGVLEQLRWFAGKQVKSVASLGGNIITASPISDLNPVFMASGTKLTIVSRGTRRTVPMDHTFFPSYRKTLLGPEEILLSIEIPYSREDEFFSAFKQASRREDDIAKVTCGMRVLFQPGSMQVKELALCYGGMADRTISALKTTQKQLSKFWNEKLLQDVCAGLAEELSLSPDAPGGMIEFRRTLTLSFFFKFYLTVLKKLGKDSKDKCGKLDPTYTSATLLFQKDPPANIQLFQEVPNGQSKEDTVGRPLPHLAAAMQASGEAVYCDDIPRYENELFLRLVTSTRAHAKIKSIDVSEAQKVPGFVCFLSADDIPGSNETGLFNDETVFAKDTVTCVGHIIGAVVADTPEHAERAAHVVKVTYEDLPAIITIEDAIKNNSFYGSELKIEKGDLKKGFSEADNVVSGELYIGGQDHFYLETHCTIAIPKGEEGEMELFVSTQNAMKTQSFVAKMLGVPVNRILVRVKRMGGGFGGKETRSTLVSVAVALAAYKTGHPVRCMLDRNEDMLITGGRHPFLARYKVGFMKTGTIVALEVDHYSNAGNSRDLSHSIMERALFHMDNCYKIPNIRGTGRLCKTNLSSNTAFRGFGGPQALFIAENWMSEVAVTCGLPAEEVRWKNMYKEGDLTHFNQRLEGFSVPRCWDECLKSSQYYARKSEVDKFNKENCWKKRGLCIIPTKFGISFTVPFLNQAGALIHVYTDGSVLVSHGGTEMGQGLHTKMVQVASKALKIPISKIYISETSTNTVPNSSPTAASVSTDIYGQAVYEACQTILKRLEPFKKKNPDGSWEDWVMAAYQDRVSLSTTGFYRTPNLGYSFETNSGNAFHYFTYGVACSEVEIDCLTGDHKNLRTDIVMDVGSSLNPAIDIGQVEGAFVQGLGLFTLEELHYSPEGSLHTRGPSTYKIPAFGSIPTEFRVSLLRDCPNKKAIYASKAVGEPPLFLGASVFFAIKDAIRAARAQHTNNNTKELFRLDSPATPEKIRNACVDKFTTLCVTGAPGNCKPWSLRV

O=C(O)CCCC[C@@H]1SC[C@@H]2NC(=O)N[C@@H]21 [biotin]
inhibition to seawater bacteria [1]: 42% | drop in fluorescence after heat and pressure (250 nM in synthetic formation water, 150° C., 3 kbar, 15 minutes): no obvious drop in fluorescence | loss of fluorescence due to temperature and pressure (dilution series, increasing temperatures up to 150° C., 4 kbar, aqueous phase of produced fluids): No loss of fluorescence | effect of heat treatment on biotin detection [2]: unaffected | degradation [3]: 14%

O=C(CO)[C@@H](O)[C@H](O)[C@H](O)CO [fructose]
oxidation by galactose oxidase / interference with galactose assay [4]: can be oxidized by galactose oxidase

O=C[C@H](O)[C@@H](O)[C@@H](O)[C@H](O)CO [galactose]
thermal stability ([5]; above 100° C. (120° C.)): a drop in concentration is observed | thermal stability ([5]; to 100° C., water and formation water, pH 6-7 and pH 2): sufficiently stable | detectable concentration range [6]: 0-30 ppm | limit of detection [6]: ca. 0.3 ppm

O=c1[nH]cnc2nc[nH]c12 [hypoxanthine]
limit of detection [7]: > 0.02 ppm | thermal stability [8]: stable

O=c1[nH]c(=O)c2[nH]cnc2[nH]1 [xanthine]
limit of detection [7]: less than 0.16 ppm
